Results as given in US20250009716A1, “NOVEL INHIBITORS OF CLAUDIN-1 FOR THERAPEUTIC INTERVENTIONS” (BOARD OF REGENTS OF THE UNIVERSITY OF NEBRASKA, priority 2021, published 2025).
Entries after “also recorded” stand apart in the source; their conditions may differ.

Tests used:
[1] = tested on: DLD-1 chemoresistant cells; experiment: p-Src and c-PARP expression in 5FU resistant cells; assay type: cell-based
Method: (§1) Furthermore, DLD-1 chemoresistant cells were treated with PDS-0330 and I-6. […] Based on the in vitro activity and metabolic stability, PDS-0330, and any potential new analogs will be evaluated in animal models to determine the pharmacokinetic properties and biodistribution as described in preliminary data.

[2] = tested on: SW480claudin-1 cells xenograft tumors; experiment: SW480claudin-1 xenograft tumor growth; assay type: in vivo
Method: (A) In-silico 3D-structure of claudin-1, cavities that can be targeted by small molecules were defined using Molegro Virtual Docker. (B) Cell survival assay showing effects of three different inhibitors (I1, I2 and 16). […] (C) Effect of 16 treatment (72 hours) upon resistance to anoikis in claudin-1 overexpressing SW480 cells and claudin-1 deficient HCT116 cells. (D) Effect of 16 treatment on cell invasion in SW480claudin-1 cells. (E) Effect of inhibitor 16 on xenograft tumors. […] Effect on tumor growth was monitored.
Tumor volume and weight were measured.
In vivo validation of the anti-tumorigenic and metastatic effects of 1-6 treatment: (i) Xenograft model. […] These studies are elaborated using claudin-1 positive (HT29, DLD-1, SW620 cells) and negative (HCT116, SW620ShRNA) for similar xenograft tumor growth studies (15,50). Luciferin expressing cells (established in our lab) are used to help examining longitudinal growth of these tumors using live mouse imaging.

[3] = tested on: SW480claudin-1 cells; experiment: Resistance to anoikis in claudin-1 overexpressing cells; assay type: cell-based; conditions: for effect on resistance to anoikis: 72 h treatment; for activity: FIG. 9, printed only as 'activity', kind of value not named
Description: (§2) The crystal structure of claudin-1 is unknown. Therefore, an in-silico protein folding program, YASARA, was used to identify an effective claudin-1 inhibitor. The resultant 3D-structure was then modeled using Molegro Virtual Docker (MVD) software program. These in-silico analyses identified putative cavities in the claudin-1 protein that can be targeted by small molecule inhibitors. Next, a 100K library of small molecules was screened in silico using the MVD. The top 10 inhibitors that bound to the Site #3 (targeting near c-terminal domain; the most accessible pocket; FIG. 2A) with the best binding energies were selected as hits and used for further testing. Screening of these inhibitors named Inihibitor-1 (1-1) to Inhibitor-10 (I-10) was done using SW480claudin-1, SW620 and control cells. Claudin-1 deficient HCT116 cells (WT-APC) or SW620shRNAcld-1 were used as negative controls. Resistance to anoikis and cell invasion was used as biological end-points in testing these inhibitors. […] 16 has the following structure:
(§3) To this end, a library of molecules was synthesized in order to develop an initial SAR evaluation. The first compounds tested eliminated the acylated (thio) urea as well as the napthyl group and evaluated just the urea/phenyl compounds (Compounds 1-6). The methoxy group of the naphthalene ring system was needed when the benzimidazole group was present (16 vs. Compound 8). […] The result of metabolic stability was expressed as the percentage of drug remaining at each time. […] To further determine the effect of PDS-0330 on p-Src expression and association, cells were treated with Compound 1, 16 and PDS-0330. Expression and association with p-Src was unaffected with Compound 1 (negative control). The specificity of PDS-0330 for CLDN1 was further confirmed by treating SW480^CLDN1, HCT116^CLDN2 (overexpressing another tight junction protein) or normal IEC-6 cells with PDS-0330 (FIG. 12).

[4] = biological target: T1, claudin-1/Src complex in SW480claudin-1 cells (Homo sapiens, UniProt O95832); experiment: Claudin-1/Src association (proximity ligation assay, Co-IP); assay type: cell-based; conditions: PLA, Co-IP or immuno-precipitation
T1 construct: claudin-1 was expressed in a non-metastatic CRC cell line, SW480 cells; expressed in transfected cells; host or cells: SW480 colorectal cancer cells expressing claudin-1 (SW480claudin-1)
T1 sequence (O95832 1-211): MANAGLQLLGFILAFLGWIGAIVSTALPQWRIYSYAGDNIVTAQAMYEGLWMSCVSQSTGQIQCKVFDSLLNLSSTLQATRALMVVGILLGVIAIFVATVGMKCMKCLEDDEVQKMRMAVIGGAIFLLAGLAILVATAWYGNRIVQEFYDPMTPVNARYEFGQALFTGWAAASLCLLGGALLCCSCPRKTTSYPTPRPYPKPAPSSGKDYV
Description: The CSC cells contribute to the generation of metastasis (16-19), and key CSC characteristics are highly relevant to metastasis, including invasive motility, and, resistance to apoptosis (20,21). […] Considering that chemoresistance is central to the CRC progression and metastasis, we further tested if adjuvant use of 16 with 5FU can have significant bearing upon these traits. Colon cancer cells were subjected to exogenous administration of 16 alone, or in combination with the 5-FU, the conventional anti-CRC drug. […] To further determine the mechanistic details the effect of 16 on association of claudin-1 and Src, SW480claudin-1 cells were treated with 16 or the vehicle and resultant cell lysate was subjected to Proximity ligation assay (PLA) or Co—IP.

[5] = tested on: SW480claudin-1 cells; experiment: Cell invasion assay; assay type: cell-based
Description: as §2
To this end, a library of molecules was synthesized in order to develop an initial SAR evaluation. The first compounds tested eliminated the acylated (thio) urea as well as the napthyl group and evaluated just the urea/phenyl compounds (Compounds 1-6). […] The result of metabolic stability was expressed as the percentage of drug remaining at each time. […]

[6] = tested on: p-Src and c-PARP in SW480claudin-1 overexpressing cells; experiment: Expression of p-Src, Src and c-PARP; assay type: cell-based
Description: as §3, §1

[7] = tested on: SW480claudin-1 cells; experiment: Cell survival (MTT assay) versus dasatinib; assay type: cell-based
Method: Effects on (A) phosphorylation of Src and EphA2 and (B) cell survival (MTT assay) were determined. Significant changes are boxed.

[8] = tested on: SW620 cells xenograft tumors; experiment: SW620 xenograft tumors; assay type: in vivo, athymic mice
Method: SW620 cells were injected into dorsal flanks of athymic mice to form xenograft tumors. PDS-0330 was injected (5 and 10 mg/kg) when tumors became palpable. Effect on tumor volume and size was determined in time-dependent manner.
The development of flank xenograft tumors in claudin-1 overexpressed SW620 cells injected nude mice was examined between vehicle and PDS-0330 (5 mg/kg and 10 mg/kg) treatment (n=5 mice per group). Representative images of tumor containing mice from the vehicle and PDS-0330 (10 mg/kg).

SMILES | apoptosis (c-PARP) [1] | p-Src expression [1] | growth of xenograft tumors ([2]; 16 i.p. 10 mg/kg) | toxic effects on xenograft mice ([2]; 16 i.p. 10 mg/kg) | effect on resistance to anoikis [3] | activity [3] | claudin-1/Src (p-Src) association [4] | effect on cell invasion [5] | apoptosis (c-PARP) [6] | p-Src expression [6] | xenograft tumor growth ([2]; PDS-0330 ip, 2.5, 5 mg/kg) | percent cell survival compared with dasatinib [7] | activity improvement of PDS-0330 over 16 ([3]; 8.4 μM vs. 28.4 μM) | tumor size ([8]; 5 and 10 mg/kg) | tumor weight ([8]; mouse, in vivo)
COc1cc2ccccc2cc1C(=O)NC(=S)Nc1ccc(-c2nc3ccccc3[nH]2)cc1 [Compound 16] | increase in apoptosis (c-PARP) | decrease in p-Src expression | significantly inhibited | did not observe any toxic effects | most effective | 28.4 µM | markedly suppressed; also recorded: reduced | most effective | increased apoptosis (c-PARP) | reduced p-Src expression | – | – | – | – | –
O=C(NC(=S)Nc1ccc(-c2nc3ccccc3o2)cc1)c1ccc2ccccc2c1 [PDS-0330] | increase in apoptosis (c-PARP) | decrease in p-Src expression | – | – | most potent compound; also recorded: significantly inhibited | 8.4 µM | most potent effects; also recorded: inhibits Src association | significantly inhibited | most potent effects | most potent effects | decrease in xenograft tumor growth | significantly decreased percent cell survival more than dasatinib; also recorded: more effective in inhibiting cell survival | ~3 fold | reduces tumor size in mice | significantly inhibited tumor weight
